Test results reported in patent publication US12122833B2, “Combination therapies of HDAC inhibitors and PD-1 inhibitors” (HUYABIO International, LLC, priority 2016, dated 2024).

Columns and labels:
[1] = test system: 4T1 murine mammary carcinoma; experiment: Example 4: lung metastatic foci count, orthotopic 4T1 murine mammary carcinoma in BALB/c mice; assay type: in vivo, mouse; details: day 14; HBI-8000 50 mg/kg p.o. qd×13; anti-PD-1 5 mg/kg i.p. biwk×2; vs vehicle control (35.0±2.17 foci)
Protocol: In this Example 4, antitumor responses induced by HBI-8000, administered alone and in combination with anti-PD-1 RMP1-14 (anti-PD-1) were characterized in the 4T1 murine mammary carcinoma xenograft model in BALB/c mice. The impact of these therapies on lung metastasis was evaluated.
Treatments began on Day (D) 1 in BALB/c mice bearing established 4T1 tumors. HBI-8000 was administered orally (p.o.) and anti-PD-1 was administered intraperitoneally (i.p.), at a single dose level. Test agents were administered alone and in combination with HBI-8000. Control animals received vehicle. The study ended on D14 as the endpoint for metastatic foci was reached. Treatment response was determined based on metastases counts taken from animals remaining on D14.
In Vivo Implantation and Tumor Growth: 4T1 tumor cells were harvested during exponential growth and resuspended in PBS. […] Tumor growth was monitored as the average size of tumors approached the target range of 80-120 mm3. […]
Results were analyzed by counting the lung metastatic foci on D14, the last day of the study. […] Percent inhibition was defined as the difference between the number of metastatic foci of the designated control group and the number of metastatic foci of the drug-treated group, expressed as a percentage of the number of metastatic foci of the designated control group: […]

HDAC 1 = HDAC 1 (Homo sapiens, UniProt Q13547); details: reported by Ning et al.; cited from earlier work
HDAC 1, sequence (Q13547 whole entry): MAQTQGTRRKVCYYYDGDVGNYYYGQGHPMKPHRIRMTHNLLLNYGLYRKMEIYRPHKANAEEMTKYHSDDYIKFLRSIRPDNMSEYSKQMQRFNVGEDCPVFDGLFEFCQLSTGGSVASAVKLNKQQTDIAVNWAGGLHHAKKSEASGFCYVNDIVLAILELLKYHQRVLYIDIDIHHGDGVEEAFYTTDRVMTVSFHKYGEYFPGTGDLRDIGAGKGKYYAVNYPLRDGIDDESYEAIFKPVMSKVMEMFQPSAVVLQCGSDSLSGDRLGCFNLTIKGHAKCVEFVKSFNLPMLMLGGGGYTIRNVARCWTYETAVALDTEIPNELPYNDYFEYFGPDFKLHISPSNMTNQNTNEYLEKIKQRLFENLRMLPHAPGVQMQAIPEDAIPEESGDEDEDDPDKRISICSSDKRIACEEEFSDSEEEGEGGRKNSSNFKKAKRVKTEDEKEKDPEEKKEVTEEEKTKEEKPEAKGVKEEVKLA

HDAC 2 = HDAC 2 (Homo sapiens, UniProt Q92769); details: reported by Ning et al.; cited from earlier work
HDAC 2, sequence (Q92769 whole entry): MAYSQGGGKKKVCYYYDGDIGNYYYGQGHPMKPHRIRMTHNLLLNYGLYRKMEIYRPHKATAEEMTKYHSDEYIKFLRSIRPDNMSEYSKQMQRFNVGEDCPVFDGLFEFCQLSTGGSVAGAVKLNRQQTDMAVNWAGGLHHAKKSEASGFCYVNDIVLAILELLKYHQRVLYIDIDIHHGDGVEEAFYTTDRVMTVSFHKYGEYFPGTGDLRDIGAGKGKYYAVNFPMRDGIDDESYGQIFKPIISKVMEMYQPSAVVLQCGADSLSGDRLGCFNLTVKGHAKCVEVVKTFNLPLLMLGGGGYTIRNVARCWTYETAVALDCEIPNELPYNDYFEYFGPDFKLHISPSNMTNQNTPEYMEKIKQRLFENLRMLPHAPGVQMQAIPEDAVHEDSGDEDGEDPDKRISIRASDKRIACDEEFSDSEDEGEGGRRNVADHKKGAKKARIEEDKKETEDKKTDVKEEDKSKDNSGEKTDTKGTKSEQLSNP

HDAC 8 = target: T1, HDAC 8 (Homo sapiens, UniProt Q9BY41); details: cited from earlier work
T1 sequence (Q9BY41 1-377): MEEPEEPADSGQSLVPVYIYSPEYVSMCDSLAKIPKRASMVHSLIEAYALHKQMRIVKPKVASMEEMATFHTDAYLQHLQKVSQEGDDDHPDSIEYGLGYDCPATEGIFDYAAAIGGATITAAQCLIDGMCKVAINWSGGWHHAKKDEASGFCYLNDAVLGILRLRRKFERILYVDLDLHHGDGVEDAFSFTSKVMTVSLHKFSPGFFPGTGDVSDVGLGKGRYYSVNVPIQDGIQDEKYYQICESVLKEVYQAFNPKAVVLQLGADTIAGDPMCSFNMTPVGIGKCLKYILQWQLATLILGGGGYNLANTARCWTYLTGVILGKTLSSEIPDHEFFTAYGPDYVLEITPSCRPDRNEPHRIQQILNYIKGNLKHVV

SMILES: Nc1cc(F)ccc1NC(=O)c1ccc(CNC(=O)/C=C/c2cccnc2)cc1 [HBI-8000, N-(2-amino-4-fluorophenyl)-4-[[[(2E)-1-oxo-3-(3-pyridinyl)-2-propen-1-yl]amino]methyl]benz amide]
- inhibition of lung metastatic foci [1]: −26%
- activity at HDAC 1 compared with Entinostat (HDAC 1): more active than Entinostat
- inhibition of HDAC 1 (HDAC 1): low nanomolar concentrations
- activity at HDAC 2 compared with Entinostat (HDAC 2): more active than Entinostat
- inhibition of HDAC 2 (HDAC 2): low nanomolar concentrations
- activity at HDAC 8 (HDAC 8): has activity
- activity at HDAC 8 compared with Entinostat (HDAC 8; reported by Ning et al.): more active than Entinostat
